According to patent publication US5294611A, “Angiotensin II receptor blocking 2,3,6 substituted quinazolinones” (American Cyanamid Company, priority 1993, dated 1994):
Where two headings read alike, the source gives them in different places.

Test system: Angiotensin II (AII) vasopressor response
Test: AII Challenge: antagonism of angiotensin II vasopressor response in conscious spontaneously hypertensive rats
Type: in vivo, rat (male okamoto-Aoki SHR)
Details: for inhibition in vivo at 3 mg/kg: Rattus norvegicus, read-out: Inhibition; for inhibition in vivo at 3 mg/kg / Average Change: SHR n=2; for Change: single SHR
Summary of the method: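 Read-out is the systolic pressure increase (mmHg) to i.v. angiotensin II, 0.05 and 0.1 ug/kg, compared pre- and post-dose in restrained, conscious spontaneously hypertensive male rats. Compounds administered orally, i.p. or i.v.; arterial cannula inserted under local anaesthesia.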

[1] = iv, 0.5 h, 3 mg/kg I.V., AII 0.05 mcg/kg IV, 30 min post dose
[2] = iv, 0.5 h, 3 mg/kg I.V., AII 0.1 mcg/kg IV, 30 min post dose
[3] = iv, 1 h, 3 mg/kg I.V., AII 0.05 mcg/kg IV, 60 min post dose
[4] = iv, 1 h, 3 mg/kg I.V., AII 0.1 mcg/kg IV, 60 min post dose
[5] = iv, 2 h, 3 mg/kg I.V., AII 0.05 mcg/kg IV, 120 min post dose
[6] = iv, 2 h, 3 mg/kg I.V., AII 0.1 mcg/kg IV, 120 min post dose
[7] = iv, 3 h, 3 mg/kg I.V., AII 0.05 mcg/kg IV, 180 min post dose
[8] = iv, 3 h, 3 mg/kg I.V., AII 0.1 mcg/kg IV, 180 min post dose
[9] = iv, 4 h, 3 mg/kg I.V., AII 0.05 mcg/kg IV, 240 min post dose
[10] = iv, 4 h, 3 mg/kg I.V., AII 0.1 mcg/kg IV, 240 min post dose
[11] = iv, 5 h, 3 mg/kg I.V., AII 0.05 mcg/kg IV, 300 min post dose
[12] = iv, 5 h, 3 mg/kg I.V., AII 0.1 mcg/kg IV, 300 min post dose
[13] = iv, […], 3 mg/kg I.V., AII 0.05 mcg/kg IV, 90 min post dose
[14] = iv, […], 3 mg/kg I.V., AII 0.1 mcg/kg IV, 90 min post dose
[15] = po, 0.5 h, 3 mg/kg P.O., AII 0.05 mcg/kg IV, 30 min post dose
[16] = po, 0.5 h, 3 mg/kg P.O., AII 0.1 mcg/kg IV, 30 min post dose
[17] = po, 1 h, 3 mg/kg P.O., AII 0.05 mcg/kg IV, 60 min post dose
[18] = po, 1 h, 3 mg/kg P.O., AII 0.1 mcg/kg IV, 60 min post dose
[19] = po, 2 h, 3 mg/kg P.O., AII 0.05 mcg/kg IV, 120 min post dose
[20] = po, 2 h, 3 mg/kg P.O., AII 0.1 mcg/kg IV, 120 min post dose
[21] = po, 3 h, 3 mg/kg P.O., AII 0.05 mcg/kg IV, 180 min post dose
[22] = po, 3 h, 3 mg/kg P.O., AII 0.1 mcg/kg IV, 180 min post dose
[23] = po, […], 3 mg/kg P.O., AII 0.05 mcg/kg IV, 90 min post dose
[24] = po, […], 3 mg/kg P.O., AII 0.1 mcg/kg IV, 90 min post dose
[25] = 3 mg/kg I.V., AII 0.05 mcg/kg IV, 30 min post dose
[26] = 3 mg/kg I.V., AII 0.05 mcg/kg IV, 60 min post dose
[27] = 3 mg/kg I.V., AII 0.05 mcg/kg IV, 90 min post dose
[28] = 3 mg/kg I.V., AII 0.05 mcg/kg IV, 120 min post dose
[29] = 3 mg/kg I.V., AII 0.05 mcg/kg IV, 180 min post dose
[30] = 3 mg/kg I.V., AII 0.05 mcg/kg IV, 240 min post dose
[31] = 3 mg/kg I.V., AII 0.05 mcg/kg IV, 300 min post dose
[32] = 3 mg/kg I.V., AII 0.1 mcg/kg IV, 30 min post dose
[33] = 3 mg/kg I.V., AII 0.1 mcg/kg IV, 60 min post dose
[34] = 3 mg/kg I.V., AII 0.1 mcg/kg IV, 90 min post dose
[35] = 3 mg/kg I.V., AII 0.1 mcg/kg IV, 120 min post dose
[36] = 3 mg/kg I.V., AII 0.1 mcg/kg IV, 180 min post dose
[37] = 3 mg/kg I.V., AII 0.1 mcg/kg IV, 240 min post dose
[38] = 3 mg/kg I.V., AII 0.1 mcg/kg IV, 300 min post dose
[39] = 3 mg/kg P.O., AII 0.05 mcg/kg IV, 30 min post dose
[40] = 3 mg/kg P.O., AII 0.05 mcg/kg IV, 60 min post dose
[41] = 3 mg/kg P.O., AII 0.05 mcg/kg IV, 90 min post dose
[42] = 3 mg/kg P.O., AII 0.05 mcg/kg IV, 120 min post dose
[43] = 3 mg/kg P.O., AII 0.05 mcg/kg IV, 180 min post dose
[44] = 3 mg/kg P.O., AII 0.1 mcg/kg IV, 30 min post dose
[45] = 3 mg/kg P.O., AII 0.1 mcg/kg IV, 60 min post dose
[46] = 3 mg/kg P.O., AII 0.1 mcg/kg IV, 90 min post dose
[47] = 3 mg/kg P.O., AII 0.1 mcg/kg IV, 120 min post dose
[48] = 3 mg/kg P.O., AII 0.1 mcg/kg IV, 180 min post dose

CCCCc1nc2ccc([C@@H]3[C@@H]4C(=O)OC[C@@H]4ON3Cc3ccccc3)cc2c(=O)n1Cc1ccc(-c2ccccc2-c2nnn[nH]2)cc1 (relative stereo) [Example 56]
inhibition in vivo at 3 mg/kg [1]: 100%
inhibition in vivo at 3 mg/kg [2]: 100%
inhibition in vivo at 3 mg/kg [3]: 100%
inhibition in vivo at 3 mg/kg [4]: 89%
inhibition in vivo at 3 mg/kg [5]: 77%
inhibition in vivo at 3 mg/kg [6]: 78%
inhibition in vivo at 3 mg/kg [7]: 77%
inhibition in vivo at 3 mg/kg [8]: 76%
inhibition in vivo at 3 mg/kg [9]: 72%
inhibition in vivo at 3 mg/kg [10]: 56%
inhibition in vivo at 3 mg/kg [11]: 65%
inhibition in vivo at 3 mg/kg [12]: 67%
inhibition in vivo at 3 mg/kg [13]: 100%
inhibition in vivo at 3 mg/kg [14]: 89%
inhibition in vivo at 3 mg/kg [15]: 31%
inhibition in vivo at 3 mg/kg [16]: 11%
inhibition in vivo at 3 mg/kg [17]: 18%
inhibition in vivo at 3 mg/kg [18]: 19%
inhibition in vivo at 3 mg/kg [19]: 36%
inhibition in vivo at 3 mg/kg [20]: 27%
inhibition in vivo at 3 mg/kg [21]: -9%
inhibition in vivo at 3 mg/kg [22]: 3%
inhibition in vivo at 3 mg/kg [23]: 36%
inhibition in vivo at 3 mg/kg [24]: 19%
Average Change [25]: 0 mmHg
Average Change [26]: 0 mmHg
Average Change [27]: 0 mmHg
Average Change [28]: 7.5 mmHg
Average Change [29]: 7.5 mmHg
Average Change [30]: 9 mmHg
Average Change [31]: 11.5 mmHg
Average Change [32]: 0 mmHg
Average Change [33]: 5 mmHg
Average Change [34]: 5 mmHg
Average Change [35]: 10 mmHg
Average Change [36]: 11 mmHg
Average Change [37]: 20 mmHg
Average Change [38]: 15 mmHg
Average Change [39]: 19 mmHg
Average Change [40]: 22.5 mmHg
Average Change [41]: 17.5 mmHg
Average Change [42]: 17.5 mmHg
Average Change [43]: 30 mmHg
Average Change [44]: 27.5 mmHg
Average Change [45]: 25 mmHg
Average Change [46]: 25 mmHg
Average Change [47]: 22.5 mmHg
Average Change [48]: 30 mmHg
Change [25]: 0 mmHg
Change [26]: 0 mmHg
Change [27]: 0 mmHg
Change [32]: 0 mmHg
Change [33]: 5 mmHg
Change [34]: 5 mmHg
Change [35]: 10 mmHg
Change [48]: 30 mmHg

CCCCc1nc2ccc([C@H]3[C@@H]4C(=O)OC[C@@H]4ON3Cc3ccccc3)cc2c(=O)n1Cc1ccc(-c2ccccc2-c2nnn[nH]2)cc1 (relative stereo) [Example 57]
inhibition in vivo at 3 mg/kg [1]: 100%
inhibition in vivo at 3 mg/kg [2]: 99%
inhibition in vivo at 3 mg/kg [3]: 100%
inhibition in vivo at 3 mg/kg [4]: 88%
inhibition in vivo at 3 mg/kg [5]: 90%
inhibition in vivo at 3 mg/kg [6]: 81%
inhibition in vivo at 3 mg/kg [7]: 61%
inhibition in vivo at 3 mg/kg [8]: 75%
inhibition in vivo at 3 mg/kg [9]: 77%
inhibition in vivo at 3 mg/kg [10]: 56%
inhibition in vivo at 3 mg/kg [11]: 71%
inhibition in vivo at 3 mg/kg [12]: 38%
inhibition in vivo at 3 mg/kg [13]: 93%
inhibition in vivo at 3 mg/kg [14]: 75%
inhibition in vivo at 3 mg/kg [15]: 34%
inhibition in vivo at 3 mg/kg [16]: 37%
inhibition in vivo at 3 mg/kg [17]: 67%
inhibition in vivo at 3 mg/kg [18]: 53%
inhibition in vivo at 3 mg/kg [19]: 41%
inhibition in vivo at 3 mg/kg [20]: 63%
inhibition in vivo at 3 mg/kg [21]: 11%
inhibition in vivo at 3 mg/kg [22]: 53%
inhibition in vivo at 3 mg/kg [23]: 47%
inhibition in vivo at 3 mg/kg [24]: 47%
Average Change [25]: 0 mmHg
Average Change [26]: 0 mmHg
Average Change [27]: 2.5 mmHg
Average Change [28]: 3.5 mmHg
Average Change [29]: 13.5 mmHg
Average Change [30]: 8 mmHg
Average Change [31]: 10 mmHg
Average Change [32]: 0.5 mmHg
Average Change [33]: 5 mmHg
Average Change [34]: 10 mmHg
Average Change [35]: 7.5 mmHg
Average Change [36]: 10 mmHg
Average Change [37]: 17.5 mmHg
Average Change [38]: 25 mmHg
Average Change [39]: 25 mmHg
Average Change [40]: 12.5 mmHg
Average Change [41]: 20 mmHg
Average Change [42]: 22.5 mmHg
Average Change [43]: 34 mmHg
Average Change [44]: 30 mmHg
Average Change [45]: 22.5 mmHg
Average Change [46]: 25 mmHg
Average Change [47]: 17.5 mmHg
Average Change [48]: 22.5 mmHg
Change [25]: 0 mmHg
Change [26]: 0 mmHg
Change [38]: 25 mmHg
Change [39]: 25 mmHg
Change [44]: 30 mmHg
